According to article PMC7531004, “Discovery of gramicidin A analogues with altered activities by multidimensional screening of a one-bead-one-compound library” (Nature Communications, 2020):
Where a SMILES comes first, the peptide text is derived from it. [ ]: non-standard residue; d: D form. The star is where a group is joined. NHCH2CH2OH = OCCN*; For = O=C*

Assays:
[1] = tested on: P388 mouse leukemia cells; conditions: 92 h
From the text: Each type of assay must be simplified and miniaturized to assess the activities of the library peptides in a 96-well format for the high-throughput screening. […]
Mammalian cytotoxicity assay of bead-derived peptides . P388 cells were obtained from Institute of
Development Aging and Cancer (Tohoku University). The cells were maintained with growth medium
[RPMI1640 with phenol red ( Fujifilm Wako Pure Chemical) supplemented with 10% heat -inactivated fetal
bovine serum, pe nicillin G (100 units/mL), and streptomycin (100 µg/mL)] under atmosphere of 5% CO 2 at
The collected cells were resuspended into
the growth medium at 2 × 10^4 cells/mL. The stock solutions of the peptide library were 250-fold diluted
with the growth medium. Aliquots of the medium (100 µL) containing peptides and the latter medium
containing P388 cells (100 µL) were mixed in a 96-well cell culture plate (TR5003, TrueLine). The final
concentration of P388 cells was 1 × 10^4 cells/mL. After incubation under atmosphere of 5% CO2 at 37 °C
for 92 h, the numbers of viable cells were determined by
2-(4-iodophenyl)-3-(4-nitrophenyl)-5-(2,4-disulfophenyl)-2H-tetrazolium, monosodium salt (WST-1) assay.
A solution of 1-methoxy-5-methylphenazinium methyl sulfate (1-methoxy PMS) and WST-1 in the growth
medium (1-methoxy PMS 0.70 mg/mL in Milli-Q/WST-1 3.6 mg/mL in pH 7.4 HEPES buffer = 1/9) was
added to each well of the plate (10.0 µL/well). The plate was incubated for 4 h under atmosphere of 5% CO2
at 37 °C. The absorbance of each well at 415 nm was measured using a Benchmark microplate reader
(Bio-Rad). The cytotoxicities were evaluated as cell viability (%). […]

[2] = tested on: Streptococcus pyogenes SSI-9; assay: Antibacterial activity assay of bead-derived peptides (three concentrations); assay type: cell-based; design: key: +++: inhibition by the 640-fold diluted peptide solution; ++: inhibition by the 160-fold diluted solution; +: inhibition by the 40-fold diluted solution; -: no inhibition; conditions: S. pyogenes, bead-derived peptide solution, three concentrations
Experimental: (§1) Each type of assay must be simplified and miniaturized to assess the activities of the library peptides in a 96-well format for the high-throughput screening.
Next, the peptides in groups A and B were subjected to the antibacterial assay and structural determination. Three peptide concentrations were applied to evaluate the growth inhibition of S. pyogenes and determine the antibacterial activity. […] Finally, the structures of the peptides were determined. […]
Antibacterial activity assay of bead-derived peptides. The stock solution of the peptide library was 4- and […]
16-fold diluted with DMSO. The non-diluted stock solution, 4-fold diluted solution, and 16-fold diluted […]
solution were transferred to the 96-well round-bottom plate (3367, Corning, 1.0 µL/well). To the solution of […]
peptide in each well was added a suspension of Streptococcus pyogenes SSI-9 strain in cation adjusted […]
Mueller Hinton Broth [40.0 µL, 2 × 10^5 colony forming units (CFU), 21 g/L Mueller Hinton Broth (Difco), 50 […]
mg/L Ca2+ (adjusted with CaCl2•2H2O), and 25 mg/L Mg2+ (adjusted with MgCl2•6H2O)] supplemented with […]
5% laked horse blood (Nippon Biotest Laboratories). The plate was incubated at 37 °C for 18 h, and the precipitation of the grown cells was examined. […]

[3] = H+/Na+ transport assay of bead-derived peptides (one-point); assay type: biochemical; design: key: relative activity; mean of two control wells = 1.00; conditions: bead-derived peptide solution, EYPC/EYPG LUVs;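 also: relative to parent gramicidin A activity set to 1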
Experimental: as §1
H+/Na+ transport assay of bead-derived peptides.1,2,3 Trisodium 8-hydroxypyrene-1,3,6-trisulfonate
mini-extruder apparatus (Avanti Polar Lipids).
28.9 µmol) in CHCl3 (225 µL) and egg yolk phosphatidylglycerol (1.20 mg, 1.56 µmol) in CHCl3 (60.0 µL)
The thin film was hydrated and
1.0 mM pyranine) by sonication.
A suspension of the LUVs was immediately
used for the H+/Na+ transport assay.
The diluted solution of peptide
flat-bottom 96-well plate (655086, Greiner bio-one).
was vortexed at room temperature for 30 min.
(5/95, 3.0 µL) and the LUV suspension were mixed in each plate to determine 100% lysis. The untreated
LUV suspension was used to determine 0% lysis.
normalized against 100% lysis by Triton X-100 (Imax) and 0% lysis (I0) as following, where Ix is the
fluorescence intensity (Supplementary Equation 2).
I = 100 × (Ix – I0) / (Imax – I0) (2)
The mean value of the two control wells was set to 1.00. […]

With CC(C)C[C@@H](NC(=O)[C@H](C)NC(=O)CNC(=O)[C@@H](NC=O)C(C)C)C(=O)N[C@@H](C)C(=O)N[C@@H](C(=O)N[C@H](C(=O)N[C@@H](C(=O)N[C@@H](Cc1c[nH]c2ccccc12)C(=O)N[C@@H](C(=O)N[C@@H](Cc1c[nH]c2ccccc12)C(=O)N[C@H](CC(C)C)C(=O)N[C@@H](Cc1c[nH]c2ccccc12)C(=O)N[C@@H](C(=O)N[C@@H](Cc1c[nH]c2ccccc12)C(=O)NCCO)C(C)C)C(C)C)C(C)C)C(C)C)C(C)C [compound 1289] (For-VGA[dL]A[dV]V[dV]W[dV]W[dL]W[dV]W-NHCH2CH2OH) the cell viability/% [1] was 95.6%, the antibacterial activity [2] was “+” and the “H+/Na+ transport activity normalized against the value of 1 (1.00)” value (from here on “H+/Na+ transport activity normalized”) [3] was 1.03.
In the case of CC(C)C[C@@H](NC(=O)[C@H](C)NC(=O)[C@H](NC(=O)[C@H](C)NC(=O)CNC(=O)[C@@H](NC=O)C(C)C)C(C)C)C(=O)N[C@H](C(=O)N[C@H](CC(C)C)C(=O)N[C@@H](Cc1c[nH]c2ccccc12)C(=O)N[C@H](CC(C)C)C(=O)N[C@@H](Cc1c[nH]c2ccccc12)C(=O)N[C@H](CC(C)C)C(=O)N[C@@H](Cc1c[nH]c2ccccc12)C(=O)N[C@H](CC(C)C)C(=O)N[C@@H](Cc1c[nH]c2ccccc12)C(=O)NCCO)C(C)C [compound 1343] (For-VGA[dV]A[dL]V[dL]W[dL]W[dL]W[dL]W-NHCH2CH2OH), the cell viability/% [1] is reported as 4.0%, the antibacterial activity [2] is reported as “-” and the “H+/Na+ transport activity normalized” value [3] is reported as 1.02.
For CNC(=O)C[C@@H](NC(=O)[C@@H](NC(=O)[C@@H](CC(C)C)NC(=O)[C@H](C)NC(=O)[C@@H](CC(C)C)NC(=O)[C@H](C)NC(=O)CNC(=O)[C@@H](NC=O)C(C)C)C(C)C)C(=O)N[C@@H](Cc1c[nH]c2ccccc12)C(=O)N[C@H](CC(C)C)C(=O)N[C@@H](Cc1c[nH]c2ccccc12)C(=O)N[C@H](CC(C)C)C(=O)N[C@@H](Cc1c[nH]c2ccccc12)C(=O)N[C@H](CC(C)C)C(=O)N[C@@H](Cc1c[nH]c2ccccc12)C(=O)NCCO [compound 1400] (For-VGA[dL]A[dL]V[dD](NHMe)W[dL]W[dL]W[dL]W-NHCH2CH2OH), the cell viability/% [1] was 72.7%, the antibacterial activity [2] was “-” and the “H+/Na+ transport activity normalized” value [3] was 1.10.
With CNC(=O)C[C@@H](NC(=O)[C@@H](NC(=O)[C@@H](CC(C)C)NC(=O)[C@H](C)NC(=O)[C@@H](CC(C)C)NC(=O)[C@H](C)NC(=O)CNC(=O)[C@@H](NC=O)C(C)C)C(C)C)C(=O)N[C@@H](Cc1c[nH]c2ccccc12)C(=O)N[C@H](CC(C)C)C(=O)N[C@@H](Cc1c[nH]c2ccccc12)C(=O)N[C@@H](C(=O)N[C@@H](Cc1c[nH]c2ccccc12)C(=O)N[C@H](CC(C)C)C(=O)N[C@@H](Cc1c[nH]c2ccccc12)C(=O)NCCO)C(C)C [compound 1479] (For-VGA[dL]A[dL]V[dD](NHMe)W[dL]W[dV]W[dL]W-NHCH2CH2OH) the cell viability/% [1] was 100.0%, the antibacterial activity [2] was “-” and the “H+/Na+ transport activity normalized” value [3] was 1.19.
With CC(C)C[C@@H](NC(=O)[C@H](C)NC(=O)[C@H](NC(=O)[C@H](C)NC(=O)CNC(=O)[C@@H](NC=O)C(C)C)[C@H](C)O)C(=O)N[C@H](C(=O)N[C@H](CC(C)C)C(=O)N[C@@H](Cc1c[nH]c2ccccc12)C(=O)N[C@H](CC(C)C)C(=O)N[C@@H](Cc1c[nH]c2ccccc12)C(=O)N[C@@H](C(=O)N[C@@H](Cc1c[nH]c2ccccc12)C(=O)N[C@H](CC(C)C)C(=O)N[C@@H](Cc1c[nH]c2ccccc12)C(=O)NCCO)C(C)C)C(C)C [compound 1516] (For-VGA[dT]A[dL]V[dL]W[dL]W[dV]W[dL]W-NHCH2CH2OH) the cell viability/% [1] was 100.0%, the antibacterial activity [2] was “-” and the “H+/Na+ transport activity normalized” value [3] was 1.06.
For CC(C)C[C@@H](NC(=O)[C@H](C)NC(=O)CNC(=O)[C@@H](NC=O)C(C)C)C(=O)N[C@@H](C)C(=O)N[C@@H](C(=O)N[C@H](C(=O)N[C@H](CC(C)C)C(=O)N[C@@H](Cc1c[nH]c2ccccc12)C(=O)N[C@@H](C(=O)N[C@@H](Cc1c[nH]c2ccccc12)C(=O)N[C@H](CC(C)C)C(=O)N[C@@H](Cc1c[nH]c2ccccc12)C(=O)N[C@@H](C(=O)N[C@@H](Cc1c[nH]c2ccccc12)C(=O)NCCO)[C@H](C)O)C(C)C)C(C)C)C(C)C [compound 1522] (For-VGA[dL]A[dV]V[dL]W[dV]W[dL]W[dT]W-NHCH2CH2OH), the cell viability/% [1] was 100.0%, the antibacterial activity [2] was “-” and the “H+/Na+ transport activity normalized” value [3] was 1.03.
In the case of CC(C)C[C@@H](NC(=O)[C@H](C)NC(=O)CNC(=O)[C@@H](NC=O)C(C)C)C(=O)N[C@@H](C)C(=O)N[C@H](CC(C)C)C(=O)N[C@H](C(=O)N[C@H](CC(C)C)C(=O)N[C@@H](Cc1c[nH]c2ccccc12)C(=O)N[C@@H](C(=O)N[C@@H](Cc1c[nH]c2ccccc12)C(=O)N[C@H](CC(C)C)C(=O)N[C@@H](Cc1c[nH]c2ccccc12)C(=O)N[C@@H](C(=O)N[C@@H](Cc1c[nH]c2ccccc12)C(=O)NCCO)C(C)C)C(C)C)C(C)C [compound 1751] (For-VGA[dL]A[dL]V[dL]W[dV]W[dL]W[dV]W-NHCH2CH2OH), the cell viability/% [1] is reported as 0.0%, the antibacterial activity [2] is reported as “-” and the “H+/Na+ transport activity normalized” value [3] is reported as 1.05.
In the case of CC(C)C[C@@H](NC(=O)[C@H](Cc1c[nH]c2ccccc12)NC(=O)[C@H](NC(=O)[C@H](Cc1c[nH]c2ccccc12)NC(=O)[C@@H](CC(C)C)NC(=O)[C@H](Cc1c[nH]c2ccccc12)NC(=O)[C@H](NC(=O)[C@@H](NC(=O)[C@H](NC(=O)[C@H](C)NC(=O)[C@H](NC(=O)[C@H](C)NC(=O)CNC(=O)[C@@H](NC=O)C(C)C)C(C)C)C(C)C)C(C)C)C(C)C)C(C)C)C(=O)N[C@@H](Cc1c[nH]c2ccccc12)C(=O)NCCO [compound 1844] (For-VGA[dV]A[dV]V[dV]W[dL]W[dV]W[dL]W-NHCH2CH2OH), the cell viability/% [1] is reported as 47.9%, the antibacterial activity [2] is reported as “++” and the “H+/Na+ transport activity normalized” value [3] is reported as 1.18.
For CC(C)C[C@@H](NC(=O)[C@H](Cc1c[nH]c2ccccc12)NC(=O)[C@H](NC(=O)[C@H](Cc1c[nH]c2ccccc12)NC(=O)[C@@H](CC(C)C)NC(=O)[C@H](Cc1c[nH]c2ccccc12)NC(=O)[C@H](NC(=O)[C@@H](NC(=O)[C@H](NC(=O)[C@H](C)NC(=O)[C@H](NC(=O)[C@H](C)NC(=O)CNC(=O)[C@@H](NC=O)C(C)C)C(C)C)C(C)C)C(C)C)C(C)C)[C@H](C)O)C(=O)N[C@@H](Cc1c[nH]c2ccccc12)C(=O)NCCO [compound 1849] (For-VGA[dV]A[dV]V[dV]W[dL]W[dT]W[dL]W-NHCH2CH2OH), the cell viability/% [1] was 100.0%, the antibacterial activity [2] was “+” and the “H+/Na+ transport activity normalized” value [3] was 1.07.
With CC(C)C[C@@H](NC(=O)[C@@H](NC(=O)[C@H](NC(=O)[C@H](C)NC(=O)[C@H](NC(=O)[C@H](C)NC(=O)CNC(=O)[C@@H](NC=O)C(C)C)C(C)C)C(C)C)C(C)C)C(=O)N[C@@H](Cc1c[nH]c2ccccc12)C(=O)N[C@@H](C(=O)N[C@@H](Cc1c[nH]c2ccccc12)C(=O)N[C@@H](C(=O)N[C@@H](Cc1c[nH]c2ccccc12)C(=O)N[C@@H](C(=O)N[C@@H](Cc1c[nH]c2ccccc12)C(=O)NCCO)C(C)C)C(C)C)C(C)C [compound 1873] (For-VGA[dV]A[dV]V[dL]W[dV]W[dV]W[dV]W-NHCH2CH2OH) the cell viability/% [1] was 100.0%, the antibacterial activity [2] was “-” and the “H+/Na+ transport activity normalized” value [3] was 1.09.
